Results taken from ChEMBL document CHEMBL4033656, “Organocatalyzed and mechanochemical solvent-free synthesis of novel and functionalized bis-biphenyl substituted thiazolidinones as potent tyrosinase inhibitors: SAR and molecular modeling studies” (Eur J Med Chem, 2017).

The molecules below were run against Mushroom tyrosinase (Agaricus bisporus, UniProt O42713+Q00024+C7FF04+C7FF05) (assay: Inhibition of mushroom tyrosinase preincubated for 5 mins followed by addition of […] as substrate measured after 30 mins).

Row | SMILES | IC50 [µM]
1 | Cc1cc(-c2ccc(N3C(=O)CSC3c3ccc(N(C)C)cc3)c(C)c2)ccc1N1C(=O)CSC1c1ccc(N(C)C)cc1 (stereo not drawn) | < 500
2 | O=C1CSC(c2ccccc2O)N1c1ccc(-c2ccc(N3C(=O)CSC3c3ccccc3O)cc2)cc1 (stereo not drawn) | 0.61
3 | COc1cc(C2SCC(=O)N2c2ccc(-c3ccc(N4C(=O)CSC4c4ccc(O)c(OC)c4)c(C)c3)cc2C)ccc1O (stereo not drawn) | 2.81
4 | O=C1CSC(c2ccc(O)cc2)N1c1ccc(-c2ccc(N3C(=O)CSC3c3ccc(O)cc3)cc2)cc1 (stereo not drawn) | 342.52
5 | COc1cc(C2SCC(=O)N2c2ccc(-c3ccc(N4C(=O)CSC4c4ccc(O)c(OC)c4)cc3)cc2)ccc1O (stereo not drawn) | 2.41
6 | O=C1CSC(c2ccccc2)N1c1ccc(-c2ccc(N3C(=O)CSC3c3ccccc3)cc2)cc1 (stereo not drawn) | 21.61
7 | COc1ccc(C2SCC(=O)N2c2ccc(-c3ccc(N4C(=O)CSC4c4ccc(OC)cc4)cc3)cc2)cc1 (stereo not drawn) | 4.41
8 | Cc1cc(-c2ccc(N3C(=O)CSC3c3ccccc3)c(C)c2)ccc1N1C(=O)CSC1c1ccccc1 (stereo not drawn) | 7.71
